Data as given in patent US9266834B2, “1, 4-disubstituted 3-cyano-pyridone derivatives and their use as positive allosteric modulators of MGLUR2-receptors” (JANSSEN PHARMACEUTICALS, INC., priority 2006, dated 2016).

Legend:
human mGluR2 receptor = molecular target: T1, human mGluR2 receptor (Homo sapiens, UniProt Q14416); assay: [35S]GTPγS binding assay (GTPγS-PAM): positive allosteric modulation in presence of glutamate at EC25, membranes from transfected CHO cells; assay type: biochemical; details: in presence of mGluR2 agonist glutamate at predetermined EC25 concentration, averages of duplicate values of 11-concentration response curves, read-out: GTPgS - hR2 PAM pEC50 (converted)
T1 construct: expressed in transfected cells; host or cells: CHO cells (membrane preparation)
In short: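 Potentiation was read as filter-retained [35S]GTPγS (0.1 nM final, 30 min, 30° C.) after a 30 min, 30° C. preincubation of human mGluR2 CHO membranes (15 μg/well) with EC25 glutamate and 11 modulator concentrations spanning 0.3 nM-50 μM. The buffer was 50 mM HEPES pH 7.4, NaCl, MgCl2, 50 μM GDP and saponin. Cold 10 μM GTP defined nonspecific binding; data were fitted by a four-parameter logistic.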

T1 sequence (Q14416 19-872): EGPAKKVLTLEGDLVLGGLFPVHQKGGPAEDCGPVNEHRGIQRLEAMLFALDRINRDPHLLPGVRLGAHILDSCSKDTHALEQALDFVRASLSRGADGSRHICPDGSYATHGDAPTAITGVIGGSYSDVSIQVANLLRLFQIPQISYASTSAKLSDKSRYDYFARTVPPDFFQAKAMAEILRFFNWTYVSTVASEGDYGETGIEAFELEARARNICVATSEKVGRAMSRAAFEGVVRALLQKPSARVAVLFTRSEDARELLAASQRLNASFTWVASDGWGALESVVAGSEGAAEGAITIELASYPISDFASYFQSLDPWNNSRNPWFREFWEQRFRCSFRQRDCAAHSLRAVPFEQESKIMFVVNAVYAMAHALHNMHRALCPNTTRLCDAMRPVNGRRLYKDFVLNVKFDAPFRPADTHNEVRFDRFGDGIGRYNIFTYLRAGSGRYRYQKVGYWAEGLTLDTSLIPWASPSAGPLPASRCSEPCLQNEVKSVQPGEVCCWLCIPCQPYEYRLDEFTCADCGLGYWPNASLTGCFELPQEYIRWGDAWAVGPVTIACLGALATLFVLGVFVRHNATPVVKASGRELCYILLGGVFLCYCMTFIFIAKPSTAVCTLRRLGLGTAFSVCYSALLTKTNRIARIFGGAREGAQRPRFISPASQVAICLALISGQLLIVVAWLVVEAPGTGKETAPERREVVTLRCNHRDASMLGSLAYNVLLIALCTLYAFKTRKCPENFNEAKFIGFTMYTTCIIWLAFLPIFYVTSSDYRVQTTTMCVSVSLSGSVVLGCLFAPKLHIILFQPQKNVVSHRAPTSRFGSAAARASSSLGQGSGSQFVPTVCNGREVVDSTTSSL

Compound	melting point [°C]	EC50 (human mGluR2 receptor) [nM]
N#Cc1c(N2CCN(Cc3ccc(OCC4CC4)c(Cl)c3)CC2)ccn(CC2CC2)c1=O [2-040]	157	501
N#Cc1c(N2CCN(CCc3ccccc3)CC2)ccn(Cc2ccc(OC(F)(F)F)cc2)c1=O [2-043]	110	251
N#Cc1c(N2CCN(Cc3ccc(F)cc3)CC2)ccn(Cc2ccc(OC(F)(F)F)cc2)c1=O [2-044]	156	1580
N#Cc1c(N2CCN(CC(=O)c3ccccc3)CC2)ccn(Cc2ccc(OC(F)(F)F)cc2)c1=O [2-046]	92	3160
N#Cc1c(N2CCN(c3ncccc3C(F)(F)F)CC2)ccn(Cc2ccc(OC(F)(F)F)cc2)c1=O [2-048]	258	79.4
N#Cc1c(N2CCN(Cc3ccc(F)c(F)c3)CC2)ccn(Cc2ccc(F)cc2)c1=O [2-051]	239	3160
CC(C)CCn1ccc(NC2CCN(c3ccc(C(F)(F)F)cn3)CC2)c(C#N)c1=O [3-004]	188	251
CC(C)CCn1ccc(N(C)C2CCN(Cc3cccc(C(F)(F)F)c3)CC2)c(C#N)c1=O [3-006]	131	2510
CC(C)CCn1ccc(OC2CCN(Cc3ccccc3)CC2)c(C#N)c1=O [3-007]	208	6310
CC(C)CCn1ccc(OCC2CCN(Cc3cccc(C(F)(F)F)c3)CC2)c(C#N)c1=O [3-009]	117	158
N#Cc1c(NC2CCN(Cc3ccc(OC(F)(F)F)c(Cl)c3)CC2)ccn(CC2CC2)c1=O [3-010]	187	1580
CN(c1ccn(Cc2ccc(OC(F)(F)F)cc2)c(=O)c1C#N)C1CCN(Cc2ccccc2)CC1 [3-013]	211	3980
CCCCn1ccc(N2CCC(c3ccnc(C)c3)CC2)c(C#N)c1=O [4-003]	132	3980
CCCCn1ccc(N2CCC(Oc3cccnc3)CC2)c(C#N)c1=O [4-004]	188	3160
CC(C)CCn1ccc(N2CCC(C(=O)c3ccccc3)CC2)c(C#N)c1=O [4-012]	296	398
CC(C)CCn1ccc(N2CCC(c3cccc(C(F)(F)F)c3)CC2)c(C#N)c1=O [4-016]	112	50.1
CC(C)CCn1ccc(N2CCC(CCOc3ccc(F)cc3)CC2)c(C#N)c1=O [4-019]	100	79.4

Compound	melting point [°C]	EC50 (human mGluR2 receptor) [nM]
CC(C)CCn1ccc(N2CCC(N(C)Cc3ccc(F)cc3)CC2)c(C#N)c1=O [4-027]	113	1260
CC(C)CCn1ccc(N2CCC(N(C)Cc3ccc(C(F)(F)F)cc3)CC2)c(C#N)c1=O [4-029]	91	126
CC(C)CCn1ccc(N2CCC(N(C)c3cccc(C(F)(F)F)c3)CC2)c(C#N)c1=O [4-031]	141	63.1
CC(C)CCn1ccc(N2CCC(N3CCc4ccccc4C3)CC2)c(C#N)c1=O [4-034]	253	3160
CC(C)CCn1ccc(N2CCC(n3ccc4cc(F)ccc43)CC2)c(C#N)c1=O [4-037]	78	126
CC(C)CCn1ccc(N2CCC(c3nc4ccccc4o3)CC2)c(C#N)c1=O [4-038]	214	398
CC(C)CCn1ccc(N2CCC(c3coc4cc(F)ccc34)CC2)c(C#N)c1=O [4-039]	123	39.8
CC(C)CCn1ccc(N2CCC(c3noc(CC(C)(C)C)n3)CC2)c(C#N)c1=O [4-040]	113	398
CC(C)CCn1ccc(N2CCC(Nc3ccccc3)C(C)C2)c(C#N)c1=O (stereo not shown) [4-043]	138	501
CN(Cc1ccccc1)C1CCN(c2ccn(Cc3ccc(OC(F)(F)F)cc3)c(=O)c2C#N)CC1 [4-049]	138	200
CN(Cc1cccc(F)c1)C1CCN(c2ccn(Cc3ccc(F)cc3)c(=O)c2C#N)CC1 [4-057]	242	1000
N#Cc1c(N2CCC(N(Cc3cccc(F)c3)C3CC3)CC2)ccn(Cc2ccc(F)cc2)c1=O [4-059]	157	251
N#Cc1c(N2CCC(N(Cc3cccc(C(F)(F)F)c3)C3CC3)CC2)ccn(Cc2ccc(F)cc2)c1=O [4-060]	96	50.1
N#Cc1c(N2CCC(N3Cc4ccc(F)cc4C3)CC2)ccn(Cc2ccc(F)cc2)c1=O [4-061]	175	1580
N#Cc1c(N2CCC(c3ccccc3)CC2)ccn(Cc2ccc(OC(F)(F)F)cc2)c1=O [4-062]	139	39.8
CN(Cc1ccccc1)C1CCN(c2ccn(CCOc3ccccc3)c(=O)c2C#N)CC1 [4-064]	159	126

Continued, values first:

melting point [°C]	EC50 (human mGluR2 receptor) [nM]	Compound
164.7	6310	CCCCn1ccc(-c2ccc3c(c2)nc(C)n3Cc2ccccn2)c(C#N)c1=O [5-002]
100	3980	CC(C)CCn1ccc(N2CCC(N(C)Cc3cccc(F)c3)C2)c(C#N)c1=O (stereo not shown) [5-006]
102	251	CC(C)CCn1ccc(N2CC(OCc3ccc(OC(F)(F)F)cc3)C2)c(C#N)c1=O [5-008]
232	25.1	CC(C)CCn1ccc(-c2ccc3c(ccn3Cc3ccncc3)c2)c(C#N)c1=O [5-020]
134	6310	CC(C)CCn1ccc(N2CCCc3ccccc32)c(C#N)c1=O [5-031]
169	1580	COc1ccc2c(c1)C1CCCN(c3ccn(CCC(C)C)c(=O)c3C#N)C1CC2 (stereo not shown) [5-035]
217	398	CC(C)CCn1ccc(N2CCC3Oc4ccccc4OC3C2)c(C#N)c1=O (stereo not shown) [5-037]
276	79.4	CC(C)CCn1ccc(N2CCc3c([nH]c4ccccc34)C2)c(C#N)c1=O [5-039]
111	316	CC(C)CCn1ccc(N2CCc3c(n(C)c4ccc(F)cc34)C2)c(C#N)c1=O [5-040]
130	50.1	CC(C)CCn1ccc(N2CCc3c(oc4ccccc34)C2)c(C#N)c1=O [5-041]
166	251	N#Cc1c(-c2ccc3[nH]ccc3c2)ccn(Cc2ccc(OC(F)(F)F)cc2)c1=O [5-051]
